Measurements: PubChem BioAssay (NCI)
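Five concentrations, 48 hours, 96-well plates. TGI: concentration producing complete growth inhibition.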

System: P388 leukemia
Test: NCI tumour cell line growth inhibition, 48 h

| Compound | TGI [µM] |
| --- | --- |
| CCCS(=O)c1nc(COC(=O)NC)c(COC(=O)NC)n1C (configuration not stated) | > 100 |
| COc1cc(C2c3cc4c(cc3[C@@H](Nc3ccc([N+](=O)[O-])cc3)C3COC(=O)[C@H]23)OCO4)cc(OC)c1O (some centres not stated) | > 100 |
